# Measured values reported in ChEMBL document CHEMBL5728176, “Substituted pyrimidines for treating bacterial infections” (2020).
# Experiment: nhibition Assay against Klebsiella pneumoniae LpxC: LpxC inhibition assays were performed using liquid chromatography with tandem mass spectrometry. Assays were performed, in duplicate, in opaque, 96-well microplates in a total assay volume of 50 μL. The incubation mixture contained: LpxC (0.2 nM Kpn), 0.8 μM UDP-3-O—[(R)-3-hydroxymyristoyl]-N-acetyl-glucosamine, 40 mM Bis-Tris/HCl buffer (pH 5.9), 5 mM sodium phosphate buffer (NaH2PO4/Na2HPO4, pH 7.0), 1 mM DTT, 0.1% (w/v) fatty-acid free BSA, 10% DMSO (v/v, with or without compound). The reactions were incubated at 22° C. for 60 minutes (with mild shaking), then terminated by the addition of 25 μL 0.25 N HCl. Samples were analyzed using a LC-MS system to measure native LpxC substrate and reaction product. IC50 analysis was done using GeneData Screener and a four parameter variable slope normalized to controls. Test compounds were prepared as 8-point dose-response curves (factor dilution 2) in triplicate, starting at 1 μM final concentration. Each assay plate included 6 wells used for the Z′ factor calculation, 3 as a positive control for the assay and 3 as a negative control. The robustness was calculated as the median Z′ factor for 5 plates. Chir-90, a well-known inhibitor of LpxC activity was used as inhibitor control standard.
smiles,measurement,value
C[C@@H](O)[C@H](NC(=O)c1ccc(C#Cc2ccc(CN3CCOCC3)cc2)cc1)C(=O)NO,IC50,< 1 nM
